Measured values: PMC6917776, “Discovery of a chemical probe for PRDM9” (Nature Communications, 2019)

Legend:
SKMM2 = test: CelltiterGlo viability cell assay; format: cell-based; conditions: SKMM2, 6 day
Protocol: (§1) Supplementary Figure 13. […] Viability of
(§2) (a) Multiple Myeloma lines and (b) Breast Cancer cell lines following 3 or 6 days treatment with […]
(§3) manufacturer’s instructions as described in the Supplementary methods. Data are normalized to DMSO control. N=3 biological replicates, +/- SEM. Source data are provided as a Source Data […]
(§4) CelltiterGlo viability cell assay
(§5) Cells were seeded in 96 well plates at per-well densities of 10000 (MDA-MB436, ATCC-HTB130), 15000 (8226, kind gift from Rodger Tiedemann, Princess Margaret Cancer Centre), […]
(§6) kind gift from Rodger Tiedemann, Princess Margaret Cancer Centre) and 50000 (CAL851, kind gift from Mathieu Lupien, Princess Margaret Cancer Centre) and were treated at increasing concentrations of compounds ranging from 0.01 μM to 30 μM and assessed for proliferation using CelltiterGlo (Promega) following manufacturer’s instructions, as readout on days 3 and 6 as indicated. All cell lines were mycoplasma negative, as determined by MycoAlert™ Mycoplasma Detection Kit(Lonza). […]

MDA-MB-436 = test: CelltiterGlo viability cell assay; format: cell-based
Protocol: as §1, §2, §3, §4, §5, §6

Structure (SMILES): COc1cc(OC)cc(-c2noc(N3CCN(C)C4(CCN(c5ccccc5)CC4)C3)n2)c1 [MRK-740N]
- viability Replicate 2 (SKMM2; 0.01 uM): 105.08
- viability Replicate 3 (SKMM2; 0.01 uM): 101.01
- viability Average (SKMM2; 0.03 uM): 96.26
- viability Replicate 1 (SKMM2; 0.03 uM): 90.23
- viability Replicate 2 (SKMM2; 0.03 uM): 98.46
- viability Replicate 3 (SKMM2; 0.03 uM): 100.08
- viability Average (SKMM2; 0.1 uM): 98.07
- viability Replicate 1 (SKMM2; 0.1 uM): 90.96
- viability Replicate 2 (SKMM2; 0.1 uM): 102.71
- viability Replicate 3 (SKMM2; 0.1 uM): 100.56
- viability Average (SKMM2; 0.3 uM): 97.57
- viability Replicate 1 (SKMM2; 0.3 uM): 90.30
- viability Replicate 2 (SKMM2; 0.3 uM): 102.21
- viability Replicate 3 (SKMM2; 0.3 uM): 100.20
- viability Average (SKMM2; 1 uM): 94.68
- viability Replicate 1 (SKMM2; 1 uM): 89.98
- viability Replicate 2 (SKMM2; 1 uM): 95.60
- viability Replicate 3 (SKMM2; 1 uM): 98.45
- viability Average (SKMM2; 3 uM): 95.79
- viability Replicate 1 (SKMM2; 3 uM): 90.06
- viability Replicate 2 (SKMM2; 3 uM): 96.19
- viability Replicate 3 (SKMM2; 3 uM): 101.13
- viability Average (SKMM2; 9.5 uM): 94.06
- viability Replicate 1 (SKMM2; 9.5 uM): 88.71
- viability Replicate 2 (SKMM2; 9.5 uM): 96.00
- viability Replicate 3 (SKMM2; 9.5 uM): 97.48
- viability Average (SKMM2; 30 uM): 64.98
- viability Replicate 1 (SKMM2; 30 uM): 81.69
- viability Replicate 2 (SKMM2; 30 uM): 45.98
- viability Replicate 3 (SKMM2; 30 uM): 67.29
- viability Average (MDA-MB-436; MDA MB436, 3 day, 0.01 uM): 104.47
- viability Replicate 1 (MDA-MB-436; MDA MB436, 3 day, 0.01 uM): 104.85
- viability Replicate 2 (MDA-MB-436; MDA MB436, 3 day, 0.01 uM): 108.92
- viability Replicate 3 (MDA-MB-436; MDA MB436, 3 day, 0.01 uM): 99.63
- viability Average (MDA-MB-436; MDA MB436, 3 day, 0.03 uM): 103.60
- viability Replicate 1 (MDA-MB-436; MDA MB436, 3 day, 0.03 uM): 101.98
- viability Replicate 2 (MDA-MB-436; MDA MB436, 3 day, 0.03 uM): 106.92
- viability Replicate 3 (MDA-MB-436; MDA MB436, 3 day, 0.03 uM): 101.91
- viability Average (MDA-MB-436; MDA MB436, 3 day, 0.1 uM): 104.90
- viability Replicate 1 (MDA-MB-436; MDA MB436, 3 day, 0.1 uM): 108.03
- viability Replicate 2 (MDA-MB-436; MDA MB436, 3 day, 0.1 uM): 99.50
- viability Replicate 3 (MDA-MB-436; MDA MB436, 3 day, 0.1 uM): 107.16
- viability Average (MDA-MB-436; MDA MB436, 3 day, 0.3 uM): 109.23
- viability Replicate 1 (MDA-MB-436; MDA MB436, 3 day, 0.3 uM): 113.13
- viability Replicate 2 (MDA-MB-436; MDA MB436, 3 day, 0.3 uM): 103.55
- viability Replicate 3 (MDA-MB-436; MDA MB436, 3 day, 0.3 uM): 111.02
- viability Average (MDA-MB-436; MDA MB436, 3 day, 1 uM): 109.50
- viability Replicate 1 (MDA-MB-436; MDA MB436, 3 day, 1 uM): 114.19
- viability Replicate 2 (MDA-MB-436; MDA MB436, 3 day, 1 uM): 107.46
- viability Replicate 3 (MDA-MB-436; MDA MB436, 3 day, 1 uM): 106.85
- viability Average (MDA-MB-436; MDA MB436, 3 day, 3 uM): 108.81
- viability Replicate 1 (MDA-MB-436; MDA MB436, 3 day, 3 uM): 105.69
- viability Replicate 2 (MDA-MB-436; MDA MB436, 3 day, 3 uM): 108.01
- viability Replicate 3 (MDA-MB-436; MDA MB436, 3 day, 3 uM): 112.73
- viability Average (MDA-MB-436; MDA MB436, 3 day, 9.5 uM): 105.69
- viability Replicate 1 (MDA-MB-436; MDA MB436, 3 day, 9.5 uM): 111.14
- viability Replicate 2 (MDA-MB-436; MDA MB436, 3 day, 9.5 uM): 101.16
- viability Replicate 3 (MDA-MB-436; MDA MB436, 3 day, 9.5 uM): 104.77
- viability Average (MDA-MB-436; MDA MB436, 3 day, 30 uM): 65.33
- viability Replicate 1 (MDA-MB-436; MDA MB436, 3 day, 30 uM): 67.81
- viability Replicate 2 (MDA-MB-436; MDA MB436, 3 day, 30 uM): 62.64
- viability Replicate 3 (MDA-MB-436; MDA MB436, 3 day, 30 uM): 65.53
- viability Average (MDA-MB-436; MDA MB436, 6 day, 0.01 uM): 103.60
- viability Replicate 1 (MDA-MB-436; MDA MB436, 6 day, 0.01 uM): 113.45
- viability Replicate 2 (MDA-MB-436; MDA MB436, 6 day, 0.01 uM): 100.02
- viability Replicate 3 (MDA-MB-436; MDA MB436, 6 day, 0.01 uM): 97.33
- viability Average (MDA-MB-436; MDA MB436, 6 day, 0.03 uM): 104.88
- viability Replicate 1 (MDA-MB-436; MDA MB436, 6 day, 0.03 uM): 112.01
- viability Replicate 2 (MDA-MB-436; MDA MB436, 6 day, 0.03 uM): 99.73
- viability Replicate 3 (MDA-MB-436; MDA MB436, 6 day, 0.03 uM): 102.91
- viability Average (MDA-MB-436; MDA MB436, 6 day, 0.1 uM): 102.74
- viability Replicate 1 (MDA-MB-436; MDA MB436, 6 day, 0.1 uM): 107.88
- viability Replicate 2 (MDA-MB-436; MDA MB436, 6 day, 0.1 uM): 92.08
- viability Replicate 3 (MDA-MB-436; MDA MB436, 6 day, 0.1 uM): 108.25
- viability Average (MDA-MB-436; MDA MB436, 6 day, 0.3 uM): 105.71
- viability Replicate 1 (MDA-MB-436; MDA MB436, 6 day, 0.3 uM): 111.04
- viability Replicate 2 (MDA-MB-436; MDA MB436, 6 day, 0.3 uM): 94.90
- viability Replicate 3 (MDA-MB-436; MDA MB436, 6 day, 0.3 uM): 111.19
- viability Average (MDA-MB-436; MDA MB436, 6 day, 1 uM): 105.76
- viability Replicate 1 (MDA-MB-436; MDA MB436, 6 day, 1 uM): 115.22
- viability Replicate 2 (MDA-MB-436; MDA MB436, 6 day, 1 uM): 95.99
- viability Replicate 3 (MDA-MB-436; MDA MB436, 6 day, 1 uM): 106.08
- viability Average (MDA-MB-436; MDA MB436, 6 day, 3 uM): 103.68
- viability Replicate 1 (MDA-MB-436; MDA MB436, 6 day, 3 uM): 104.50
- viability Replicate 2 (MDA-MB-436; MDA MB436, 6 day, 3 uM): 94.30
- viability Replicate 3 (MDA-MB-436; MDA MB436, 6 day, 3 uM): 112.23
- viability Average (MDA-MB-436; MDA MB436, 6 day, 9.5 uM): 88.40
- viability Replicate 1 (MDA-MB-436; MDA MB436, 6 day, 9.5 uM): 98.62
- viability Replicate 2 (MDA-MB-436; MDA MB436, 6 day, 9.5 uM): 74.13
- viability Replicate 3 (MDA-MB-436; MDA MB436, 6 day, 9.5 uM): 92.44
- viability Average (MDA-MB-436; MDA MB436, 6 day, 30 uM): 37.17
- viability Replicate 1 (MDA-MB-436; MDA MB436, 6 day, 30 uM): 41.30
- viability Replicate 2 (MDA-MB-436; MDA MB436, 6 day, 30 uM): 30.92
- viability Replicate 3 (MDA-MB-436; MDA MB436, 6 day, 30 uM): 39.29
